Like-named read-outs stand apart in the source and are kept apart here.
Legend:
[1] = test system: recombinant α1a-adrenoceptor; conditions: literature statement (Leonardi et al. 1997); cited from earlier work
diastolic blood pressure = conditions: cited from earlier work; for DBP ED25: dose inducing a 25% decrease in diastolic blood pressure: anaesthetised dogs, i.v., data from Leonardi et al. 1997
[2] = test system: prostatic urethral pressure (hypogastric-nerve stimulation); conditions: anaesthetised dogs, i.v.; data from Leonardi et al. 1997; cited from earlier work
[3] = test system: prostatic urethral pressure (noradrenaline-induced); conditions: cited from earlier work
α1L adrenoceptor = target: T1, α1L adrenoceptor (Oryctolagus cuniculus, UniProt O02824); assay: Functional antagonism of noradrenaline-induced contractions of rabbit aorta pretreated with chloroethylclonidine; type: biochemical
T1 sequence (O02824 1-466): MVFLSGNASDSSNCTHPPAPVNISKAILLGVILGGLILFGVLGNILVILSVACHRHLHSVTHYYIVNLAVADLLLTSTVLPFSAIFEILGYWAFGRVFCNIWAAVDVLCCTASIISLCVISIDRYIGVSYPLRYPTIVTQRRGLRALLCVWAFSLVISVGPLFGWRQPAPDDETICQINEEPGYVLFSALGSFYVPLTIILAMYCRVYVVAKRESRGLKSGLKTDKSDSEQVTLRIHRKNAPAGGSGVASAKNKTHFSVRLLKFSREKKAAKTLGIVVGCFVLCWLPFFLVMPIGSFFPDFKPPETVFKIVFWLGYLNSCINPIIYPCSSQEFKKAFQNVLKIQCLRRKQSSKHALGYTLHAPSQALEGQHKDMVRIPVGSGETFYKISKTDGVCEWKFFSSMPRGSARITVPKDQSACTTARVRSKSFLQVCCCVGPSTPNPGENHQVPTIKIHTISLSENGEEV
Experimental: Adult male New Zealand rabbits were sacrificed by cervical dislocation. The aorta was removed, placed in Krebs-Henseleit buffer and dissected free of adhering tissue. […] Desmethylimipramine (0.1 μM) and corticosterone (1 μM) to block neuronal and extraneuronal uptake of NA, (±)-propranol (1 μM) to block β adrenoceptors and yohimbine (0.1 μM) to block α2 adrenoceptors were added to the buffer.
Each antagonist concentration was tested using 2-3 aortic rings from different rabbits.
The logarithm of these dose ratio −1 was plotted against the logarithm of the compound concentrations (Schild plot) to evaluate the affinity constant Kb.

[4] = dog model, literature (Leonardi et al. 1997)

COc1ccccc1N1CCN(CCCNC(=O)c2cccc3c(=O)c(C)c(-c4ccccc4)oc23)CC1 [Compound A]
affinity for the α1A adrenoceptor [1]: good affinity
DBP ED25: dose inducing a 25% decrease in diastolic blood pressure (diastolic blood pressure; first of two DBP values (the one that gives R1, NA)): 0.243 mg/kg
DBP ED25: dose inducing a 25% decrease in diastolic blood pressure (diastolic blood pressure; second of two DBP values (the one that gives R2, HYP)): 0.177 mg/kg
effects on blood pressure (diastolic blood pressure; [4]): without substantial effects on blood pressure
UP ID50 HYP: dose inhibiting by 50% the urethral contractions induced by hypogastric-nerve stimulation [2]: 0.0067 mg/kg
UP ID50 NA: dose inhibiting by 50% the urethral contractions induced by noradrenaline ([3]; anaesthetised dogs, i.v., data from Leonardi et al. 1997): 0.0024 mg/kg
inhibition of contractility of the prostatic urethra [3, 4]: selectively inhibit contractility of the prostatic urethra
Functional affinity for the α1L adrenoceptor subtype, pKb (α1L adrenoceptor): 8.91
